From ChEMBL document CHEMBL5033996, “Design, Synthesis, and Bioactivity Evaluation of Dual-Target Inhibitors of Tubulin and Src Kinase Guided by Crystal Structure” (J Med Chem, 2021)
Active and inactive are the calls of the source. No cut-off for these calls is given here.

Key:
[1] = Antitumor activity against human SK-OV-3 cells xenografted in nude mouse assessed as tumor growth inhibition at 10 mg/kg, po measured every 3 days for 1 month by vernier caliper analysis relative to control; format: functional; settings: SK-OV-3, po, 730 h, time 1 months, read-out: TGI
K562 = experiment: Antiproliferative activity against human K562 cells assessed as inhibition of cell proliferation measured after 72 hrs by MTT assay; format: functional, cell-based; settings: K562, 72 h
SK-OV-3 [2] = experiment: Antiproliferative activity against human SK-OV-3 cells assessed as inhibition of cell proliferation measured after 72 hrs by MTT assay; format: functional, cell-based; settings: SK-OV-3, 72 h
Ramos = experiment: Antiproliferative activity against human Ramos cells assessed as inhibition of cell proliferation measured after 72 hrs by MTT assay; format: functional, cell-based
[3] = Half life in human liver microsomes; format: ADME, Microsome
[4] = Intrinsic clearance in human liver microsomes; format: ADME, Microsome
Tubulin = experiment: Binding affinity to tubulin (unknown origin) assessed as dissociation constant by tryptophan based binding assay; format: protein-complex assay, Homo sapiens
[5] = AUC (0 to t) in Sprague-Dawley rat at 5 mg/kg, po measured up to 24 hrs by LC/MS/MS analysis; format: ADME, organism-based; design: route oral, dose 5 mg/kg, time <=24; settings: in vivo
[6] = Half life in Sprague-Dawley rat at 5 mg/kg, po measured up to 24 hrs by LC/MS/MS analysis; format: ADME, organism-based; settings: in vivo
[7] = Tmax in Sprague-Dawley rat at 5 mg/kg, po measured up to 24 hrs by LC/MS/MS analysis; format: ADME, organism-based; settings: in vivo
[8] = Cmax in Sprague-Dawley rat at 5 mg/kg, po measured up to 24 hrs by LC/MS/MS analysis; format: ADME, organism-based; design: route oral, dose 5 mg/kg, time <=24; settings: in vivo
[9] = Clearance in Sprague-Dawley rat at 5 mg/kg, po measured up to 24 hrs by LC/MS/MS analysis; format: ADME, organism-based; settings: in vivo
[10] = Oral bioavailability in Sprague-Dawley rat at 5 mg/kg measured up to 24 hrs by LC/MS/MS analysis; format: ADME, organism-based; settings: in vivo
[11] = Antitumor activity against mouse C26 cells xenografted in BALB/c mouse assessed as tumor growth inhibition at 10 mg/kg, po measured every 2 days for 10 days by vernier caliper analysis relative to control; format: functional; settings: 240 h, time 10 day, read-out: TGI
[12] = Antitumor activity against human SK-OV-3 cells xenografted in nude mouse assessed as tumor growth inhibition at 5 mg/kg, po measured every 3 days for 1 month by vernier caliper analysis relative to control; format: functional; settings: SK-OV-3, po, 730 h, time 1 months, read-out: TGI
[13] = Toxicity in mouse xenografted with human SK-OV-3 cells assessed as effect on body weight at 10 mg/kg, po administered for 30 days; format: organism-based; settings: in vivo, 720 h, time 30 day
[14] = Toxicity in mouse xenografted with human SK-OV-3 cells assessed as effect on body weight at 5 mg/kg, po administered for 30 days; format: organism-based; settings: in vivo, 720 h, time 30 day
Tubulin (Homo sapiens) = Tubulin (Homo sapiens) (UniProt P68371+Q9H4B7+P0DPH7+P68366+Q13509+Q71U36+P04350+Q3ZCM7+P07437+P68363+Q9BQE3+Q6PEY2+Q13885+Q9BVA1+Q9BUF5); experiment: Inhibition of tubulin polymerization in human SK-OV-3 cells at 5 uM incubated for 16 hrs by fluorescence microscopic analysis; format: cell-based
SK-OV-3 [15] = experiment: Induction of cell cycle arrest in human SK-OV-3 cells assessed as accumulation of cells at G0/G1 phase at 1 nM incubated for 24 hrs by PI staining based flow cytometry analysis (Rvb= 49.60%); format: functional
SK-OV-3 [16] = experiment: Induction of cell cycle arrest in human SK-OV-3 cells assessed as accumulation of cells at G2/M phase at 1 nM incubated for 24 hrs by PI staining based flow cytometry analysis (reference value: 28.94%); format: functional
SK-OV-3 [17] = experiment: Induction of cell cycle arrest in human SK-OV-3 cells assessed as accumulation of cells at S phase at 1 nM incubated for 24 hrs by PI staining based flow cytometry analysis (reference value: 21.4 %); format: functional
SK-OV-3 [18] = experiment: Induction of cell cycle arrest in human SK-OV-3 cells assessed as accumulation of cells at G0/G1 phase at 5 nM incubated for 24 hrs by PI staining based flow cytometry analysis (reference value: 49.60 %); format: functional
SK-OV-3 [19] = experiment: Induction of cell cycle arrest in human SK-OV-3 cells assessed as accumulation od cells at G2/M phase at 5 nM incubated for 24 hrs by PI staining based flow cytometry analysis (reference value: 28.94%); format: functional
SK-OV-3 [20] = experiment: Induction of cell cycle arrest in human SK-OV-3 cells assessed as accumulation of cells at S phase at 5 nM incubated for 24 hrs by PI staining based flow cytometry analysis (reference value: 21.4 %); format: functional
SK-OV-3 [21] = experiment: Induction of cell cycle arrest in human SK-OV-3 cells assessed as accumulation of cells at G0/G1 phase at 10 nM incubated for 24 hrs by PI staining based flow cytometry analysis (reference value: 49.60 %); format: functional
SK-OV-3 [22] = experiment: Induction of cell cycle arrest in human SK-OV-3 cells assessed as accumulation of cells at G2/M phase at 10 nM incubated for 24 hrs by PI staining based flow cytometry analysis (reference value: 28.94%); format: functional
SK-OV-3 [23] = experiment: Induction of cell cycle arrest in human SK-OV-3 cells assessed as accumulation of cells at S phase at 10 nM incubated for 24 hrs by PI staining based flow cytometry analysis (reference value: 21.4 %); format: functional
SK-OV-3 [24] = experiment: Induction of mitotic block in human SK-OV-3 cells at 10 to 30 nM in presence of colchicine measured immediately by flow cytometry analysis; format: functional, cell-based; settings: dose 10-30 nM
SK-OV-3 [25] = experiment: Induction of mitotic block in human SK-OV-3 cells at 300 nM measured after 10 hrs by flow cytometry analysis; format: functional, cell-based
[26] = target: Proto-oncogene tyrosine-protein kinase Src (Homo sapiens) (UniProt P12931); experiment: Inhibition of Src kinase phosphorylation at Tyr416/419 residue in human SK-OV-3 cells incubated for 24 hrs by Western blot analysis; format: cell-based
[27] = target: Focal adhesion kinase 1 (Homo sapiens) (UniProt Q05397); experiment: Inhibition of FAK phosphorylation at […] residue in human SK-OV-3 cells incubated for 24 hrs by Western blot analysis; format: cell-based
[28] = Toxicity in C57 mouse at 40 mg/kg, po administered twice daily; format: organism-based; settings: in vivo
[29] = Toxicity in BALB/c mouse xenografted with mouse C26 cells assessed as death at 10 mg/kg, po measured every 2 days for 10 days; format: organism-based; settings: in vivo, 240 h, time 10 day
[30] = Toxicity in C57 mouse at 10 mg/kg, po administered twice daily; format: organism-based; settings: in vivo
SK-OV-3 [31] = experiment: Induction of cell cycle arrest in human SK-OV-3 cells assessed as accumulation of cells at G0/G1 phase at 20 nM incubated for 24 hrs by PI staining based flow cytometry analysis (reference value: 49.60 %); format: functional
SK-OV-3 [32] = experiment: Induction of cell cycle arrest in human SK-OV-3 cells assessed as accumulation of cells at G2/M phase at 20 nM incubated for 24 hrs by PI staining based flow cytometry analysis (reference value: 28.94%); format: functional
SK-OV-3 [33] = experiment: Induction of cell cycle arrest in human SK-OV-3 cells assessed as accumulation of cells at S phase at 20 nM incubated for 24 hrs by PI staining based flow cytometry analysis (reference value: 21.4 %); format: functional
SK-OV-3 [34] = experiment: Induction of cell cycle arrest in human SK-OV-3 cells assessed as accumulation of cells at G0/G1 phase at 100 nM incubated for 24 hrs by PI staining based flow cytometry analysis (reference value: 49.60 %); format: functional
SK-OV-3 [35] = experiment: Induction of cell cycle arrest in human SK-OV-3 cells assessed as accumulation of cells at G2/M phase at 100 nM incubated for 24 hrs by PI staining based flow cytometry analysis (reference value: 28.94%); format: functional
SK-OV-3 [36] = experiment: Induction of cell cycle arrest in human SK-OV-3 cells assessed as accumulation of cells at S phase at 100 nM incubated for 24 hrs by PI staining based flow cytometry analysis (reference value: 21.4 %); format: functional

Proto-oncogene tyrosine-protein kinase Src (Homo sapiens), sequence (P12931 2-536 limits assumed): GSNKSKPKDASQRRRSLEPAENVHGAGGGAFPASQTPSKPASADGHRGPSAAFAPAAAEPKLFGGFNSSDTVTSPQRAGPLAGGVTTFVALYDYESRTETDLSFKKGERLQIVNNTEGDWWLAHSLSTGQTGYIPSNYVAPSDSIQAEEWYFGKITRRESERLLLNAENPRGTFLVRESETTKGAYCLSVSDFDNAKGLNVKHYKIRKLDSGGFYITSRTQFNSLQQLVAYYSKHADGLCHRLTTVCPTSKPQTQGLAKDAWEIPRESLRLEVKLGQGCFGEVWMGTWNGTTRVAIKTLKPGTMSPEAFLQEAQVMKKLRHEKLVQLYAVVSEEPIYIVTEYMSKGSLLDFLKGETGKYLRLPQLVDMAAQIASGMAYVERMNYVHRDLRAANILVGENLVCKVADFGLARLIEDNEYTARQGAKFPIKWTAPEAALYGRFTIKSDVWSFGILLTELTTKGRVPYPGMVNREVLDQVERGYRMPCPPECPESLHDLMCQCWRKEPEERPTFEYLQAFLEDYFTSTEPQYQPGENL
Focal adhesion kinase 1 (Homo sapiens), sequence (Q05397 2-1052 limits assumed): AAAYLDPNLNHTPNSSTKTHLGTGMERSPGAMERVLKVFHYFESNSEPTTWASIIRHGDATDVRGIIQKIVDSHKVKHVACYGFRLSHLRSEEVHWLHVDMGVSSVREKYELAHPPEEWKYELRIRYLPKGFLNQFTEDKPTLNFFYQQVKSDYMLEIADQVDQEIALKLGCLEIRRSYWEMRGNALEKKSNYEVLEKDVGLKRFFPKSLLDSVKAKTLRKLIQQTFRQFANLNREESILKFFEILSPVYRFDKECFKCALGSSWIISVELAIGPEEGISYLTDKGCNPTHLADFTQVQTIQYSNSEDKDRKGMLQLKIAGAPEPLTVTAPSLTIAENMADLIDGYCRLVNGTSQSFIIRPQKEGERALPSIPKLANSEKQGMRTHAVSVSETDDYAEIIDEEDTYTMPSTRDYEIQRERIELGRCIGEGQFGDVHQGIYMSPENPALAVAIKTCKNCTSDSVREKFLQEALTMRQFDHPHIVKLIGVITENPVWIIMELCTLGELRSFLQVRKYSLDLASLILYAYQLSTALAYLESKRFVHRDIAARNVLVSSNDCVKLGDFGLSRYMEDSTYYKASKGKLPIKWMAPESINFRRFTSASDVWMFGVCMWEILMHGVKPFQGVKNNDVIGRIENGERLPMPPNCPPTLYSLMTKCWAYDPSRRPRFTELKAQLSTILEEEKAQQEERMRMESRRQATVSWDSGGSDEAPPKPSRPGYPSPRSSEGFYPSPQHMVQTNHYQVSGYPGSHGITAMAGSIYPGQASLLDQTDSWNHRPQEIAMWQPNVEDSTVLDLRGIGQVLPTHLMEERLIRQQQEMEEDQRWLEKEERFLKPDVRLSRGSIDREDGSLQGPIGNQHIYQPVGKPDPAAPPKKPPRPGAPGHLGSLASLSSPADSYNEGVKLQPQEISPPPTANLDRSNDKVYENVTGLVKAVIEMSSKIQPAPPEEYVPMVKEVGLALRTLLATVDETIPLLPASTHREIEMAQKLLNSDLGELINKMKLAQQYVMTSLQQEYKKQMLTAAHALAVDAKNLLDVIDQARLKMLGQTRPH

Row | Compound | inhibition in vivo at 10 mg/kg [1] | IC50 (K562) | IC50 (SK-OV-3 [2]) | IC50 (Ramos) | half-life [3] | CLH [4] | Kd (Tubulin) | AUC(0-t) at 24 h [5] | half-life [6] | Tmax [7] | Cmax [8] | CL/F [9] | bioavailability [10] | inhibition in vivo at 10 mg/kg [11] | Activity [13] | Activity (SK-OV-3 [21]) | Activity (SK-OV-3 [22]) | Activity (SK-OV-3 [23]) | inhibition [26] | inhibition [27] | other results
1 | O=C(Cc1ccc(-c2ccc(OCCN3CCN(C(=O)CC4CC4)CC3)cc2)cn1)NCc1ccccc1 | 70% | 1 nM | 0.61 nM | 1.4 nM | 27.8 min | 49.8 mL·min/g | 610 nM | 1.05 µg·h/mL | 231 min | 19.8 min | 0.398 µg/mL | 4.81 L/h/kg | 24.3% | 71% | Non-Toxic | 12.1% | 72.04% | 15.86% | Dose-Dependent Effect | Dose-Dependent Effect | inhibition in vivo at 5 mg/kg [12]: 52%; Activity [14]: Non-Toxic; inhibition (Tubulin (Homo sapiens)): Active; Activity (SK-OV-3 [15]): 45.93%; Activity (SK-OV-3 [16]): 32.11%; Activity (SK-OV-3 [17]): 21.96%; Activity (SK-OV-3 [18]): 39.12%; Activity (SK-OV-3 [19]): 39.47%; Activity (SK-OV-3 [20]): 21.42%; Activity (SK-OV-3 [24]): Active; Activity (SK-OV-3 [25]): Active; Activity [28]: Non-Toxic
2 | O=C(Cc1ccc(-c2ccc(OCCN3CCN(C(=O)C4CC4)CC3)cc2)cn1)NCc1ccccc1 |  | 2.5 nM | 1.1 nM | 1.3 nM | 38.5 min | 36 mL·min/g | 290 nM | 1.62 µg·h/mL | 158 min | 49.8 min | 0.593 µg/mL | 3.34 L/h/kg | 52.2% | 73% |  |  |  |  | Dose-Dependent Effect | Dose-Dependent Effect | Activity [28]: Non-Toxic; Activity [29]: Toxic
3 | O=C(Cc1ccc(-c2ccc(OCCN3CCN(C(=O)[C@@H]4C[C@@H]4F)CC3)cc2)cn1)NCc1ccccc1 |  | 1.4 nM | 0.6 nM | 1.6 nM | 52.1 min | 26.6 mL·min/g | 300 nM | 4.18 µg·h/mL | 305 min | 42 min | 0.742 µg/mL | 1.55 L/h/kg | 79.9% |  |  |  |  |  | Dose-Dependent Effect | Dose-Dependent Effect | Activity [30]: Toxic
4 | O=C(Cc1ccc(-c2ccc(OCCN3CCOCC3)cc2)cn1)NCc1ccccc1 [TIRBANIBULIN] | 42% | 18.2 nM | 6.8 nM | 15.7 nM | 44.1 min | 31.4 mL·min/g | 1110 nM | 0.84 µg·h/mL | 740 min | 15 min | 0.431 µg/mL | 5.31 L/h/kg | 34.9% | 51% | Non-Toxic | 46.66% | 34.01% | 19.33% |  |  | Activity (SK-OV-3 [31]): 40.07%; Activity (SK-OV-3 [32]): 40.35%; Activity (SK-OV-3 [33]): 19.58%; Activity (SK-OV-3 [34]): 15.39%; Activity (SK-OV-3 [35]): 64.41%; Activity (SK-OV-3 [36]): 20.2%
